Data taken from patent US9290503B2, “Tricyclic compound derivatives useful in the treatment of neoplastic diseases, inflammatory disorders and immunomodulatory disorders” (CHEMBRIDGE CORPORATION, priority 2006, dated 2016).

Assays:
Type in all cases: cell-based
[1] = system: HEK293 (human normal embryonic kidney); test: Cell proliferation assay, MTT, HEK293; conditions: HEK293, 72 h, standard 3-day proliferation assay, read-out: HEK IC50
Excerpt: (§1) IGF1R and other tyrosine kinase inhibitors can inhibit the proliferation of certain cancer cell lines indicating their possible therapeutic utility for treating the corresponding cancer types. Cancer cell lines of interest and control normal lines, including CHO, HEK293, BA/F3, COLO205, PC3, DU145, MCF7, Panc1, ACHN, Hep G2, H460, K562, TT, U87-MG, CAOV-3, SK-MEL5, Karpas 299 and human multiple myeloma cell lines H929, MM1s, MM1r, UTMC2, CPM2, KMS11, My5, KMS12PE, My7, JJN3, KMS18, U266, SKMM2, RPMI-8226 are plated in white, clear-bottomed 384-well cell culture plates at 2500-5000 cells per well and supplied with dilutions of tested compounds After a desired period of time (typically 3 days), the number of viable cells is quantitated by using Cell Titer-Glo Luminescent Cell Viability Assay (Promega), a cell proliferation assay system based on detection of total amount of ATP present as a measure of cell metabolic activity. The plated cells are mixed with the Cell Titer-Glo developing reagent and counted in a luminescence multiwell plate reader according to the standard manufacturer's protocol to generate IC50 curves for cell proliferation inhibition. […] Alternatively, viable cells are quantitated by using the conventional colorimetric MTT assay. […] The formazan is then solubilized, and the concentration determined by optical density at 570 nm. […]

[2] = system: CHO (chinese hamster ovary); test: Cell proliferation assay, MTT, CHO; conditions: Cricetulus griseus, 72 h, standard 3-day proliferation assay
Excerpt: as §1

H929 = test: Cell proliferation assay, MTT, H929; conditions: Homo sapiens, NCI-H929, 72 h, standard 3-day proliferation assay
Excerpt: as §1

MM1s = test: Cell proliferation assay, MTT, MM1s; conditions: Homo sapiens, MM1.S, 72 h, standard 3-day proliferation assay
Excerpt: as §1

MM1r = test: Cell proliferation assay, MTT, MM1r; conditions: Homo sapiens, MM.1R, 72 h, standard 3-day proliferation assay
Excerpt: as §1

UTMC2 = test: Cell proliferation assay, MTT, UTMC2; conditions: Homo sapiens, UTMC2, 72 h, standard 3-day proliferation assay
Excerpt: as §1

CPM2 = test: Cell proliferation assay, MTT, CPM2; conditions: Homo sapiens, 72 h, standard 3-day proliferation assay
Excerpt: as §1

KMS11 = test: Cell proliferation assay, MTT, KMS11; conditions: Homo sapiens, KMS-11, 72 h, standard 3-day proliferation assay
Excerpt: as §1

My5 = test: Cell proliferation assay, MTT, My5; conditions: Homo sapiens, 72 h, standard 3-day proliferation assay
Excerpt: as §1

KMS12PE = test: Cell proliferation assay, MTT, KMS12PE; conditions: Homo sapiens, KMS-12-PE, 72 h, standard 3-day proliferation assay
Excerpt: as §1

My7 = test: Cell proliferation assay, MTT, My7; conditions: Homo sapiens, 72 h, standard 3-day proliferation assay
Excerpt: as §1

JJN3 = test: Cell proliferation assay, MTT, JJN3; conditions: Homo sapiens, JJN-3, 72 h, standard 3-day proliferation assay
Excerpt: as §1

KMS18 = test: Cell proliferation assay, MTT, KMS18; conditions: Homo sapiens, KMS18, 72 h, standard 3-day proliferation assay
Excerpt: as §1

U266 = test: Cell proliferation assay, MTT, U266; conditions: Homo sapiens, U-266, 72 h, standard 3-day proliferation assay
Excerpt: as §1

SKMM2 = test: Cell proliferation assay, MTT, SKMM2; conditions: Homo sapiens, SK-MM-2, 72 h, standard 3-day proliferation assay
Excerpt: as §1

RPMI-8226 = test: Cell proliferation assay, MTT, RPMI-8226; conditions: Homo sapiens, RPMI-8226, 72 h, standard 3-day proliferation assay
Excerpt: as §1

IGF1 receptor = molecular target: T1, IGF1 receptor (Homo sapiens, UniProt P08069); test: ELISA-based assay of IGF1 receptor autophosphorylation inhibition in cells; conditions: MCF7 cells, read-out: MCF7 IGF1R Phosphorylation IC50
T1 construct: MCF7 human breast cancer cells expressing IGF1 receptor; endogenous in cells; host or cells: MCF7 human breast cancer cells
Protocol: In another embodiment, compounds that interact with the IGF1R kinase domain are tested in a cell-based assay system. In accordance with this embodiment, cells expressing a full-length IGF1 receptor or a fragment thereof containing the IGF1R kinase domain, are contacted with a candidate or a control compound and the ability of the compound to block tyrosine kinase activity of IGF1R within a cell is determined. This assay may be used to screen a single compound or a large library of candidate compounds. […] The ability of the candidate compound to inhibit IGF1R kinase activity can be determined by methods known to those skilled in the art. For example, the inhibition can be determined by ELISA-type assay or Western blot analysis with cell lysates or immunoprecipitated IGF1R receptor using various anti-IGF1R and anti-phosphotyrosine antibodies.
In general, cells expressing IGF1R are treated with modulators (i.e., inhibitors or activators) of IGF1R kinase activity and cell lysates are produced from these treated cells. IGF1Rs are isolated from the lysate by immunoprecipitation and analyzed for phosphotyrosine content. Alternatively, or in addition, cellular protein substrates phosphorylated by IGFR may be immunoprecipitated from the lysates and their degree of tyrosine phosphorylation determined. […]

T1 sequence (P08069 31-1367): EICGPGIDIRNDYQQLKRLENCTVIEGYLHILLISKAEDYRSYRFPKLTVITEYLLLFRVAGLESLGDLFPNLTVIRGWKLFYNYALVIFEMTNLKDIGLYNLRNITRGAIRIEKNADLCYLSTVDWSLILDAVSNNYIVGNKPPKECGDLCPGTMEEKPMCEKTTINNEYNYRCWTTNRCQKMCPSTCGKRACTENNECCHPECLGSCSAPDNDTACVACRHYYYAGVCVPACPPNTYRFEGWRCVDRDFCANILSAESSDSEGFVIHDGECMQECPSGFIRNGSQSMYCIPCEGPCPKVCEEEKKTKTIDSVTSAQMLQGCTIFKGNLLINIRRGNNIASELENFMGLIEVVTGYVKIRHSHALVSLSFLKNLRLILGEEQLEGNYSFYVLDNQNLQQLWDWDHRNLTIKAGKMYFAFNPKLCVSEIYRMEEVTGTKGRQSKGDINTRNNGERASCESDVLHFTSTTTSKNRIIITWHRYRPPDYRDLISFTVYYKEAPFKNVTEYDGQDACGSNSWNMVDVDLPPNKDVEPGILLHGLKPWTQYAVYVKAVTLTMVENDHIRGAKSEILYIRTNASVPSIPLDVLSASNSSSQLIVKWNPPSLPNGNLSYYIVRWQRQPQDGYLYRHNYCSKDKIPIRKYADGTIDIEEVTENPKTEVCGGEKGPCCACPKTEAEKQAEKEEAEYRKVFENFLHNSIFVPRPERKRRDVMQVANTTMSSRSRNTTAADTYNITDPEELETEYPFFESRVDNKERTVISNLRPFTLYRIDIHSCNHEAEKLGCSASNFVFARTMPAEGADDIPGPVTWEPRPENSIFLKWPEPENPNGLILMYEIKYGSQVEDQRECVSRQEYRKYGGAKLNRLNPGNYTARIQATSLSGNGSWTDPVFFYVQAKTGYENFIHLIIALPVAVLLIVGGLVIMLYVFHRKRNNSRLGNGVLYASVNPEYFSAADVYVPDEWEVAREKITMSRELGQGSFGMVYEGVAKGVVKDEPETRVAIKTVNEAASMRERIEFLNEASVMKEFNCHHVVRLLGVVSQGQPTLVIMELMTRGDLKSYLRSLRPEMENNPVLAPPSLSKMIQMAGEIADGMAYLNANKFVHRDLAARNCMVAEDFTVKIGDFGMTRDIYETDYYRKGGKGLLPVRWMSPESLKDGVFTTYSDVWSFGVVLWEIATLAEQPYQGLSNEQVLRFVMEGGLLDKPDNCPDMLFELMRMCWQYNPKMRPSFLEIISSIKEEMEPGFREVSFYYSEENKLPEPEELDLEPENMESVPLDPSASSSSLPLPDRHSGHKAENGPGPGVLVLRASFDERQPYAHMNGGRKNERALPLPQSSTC

Row | SMILES | IC50 [1] [µM] | IC50 [2] [µM] | IC50 (H929) [µM] | IC50 (MM1s) [µM] | IC50 (MM1r) [µM] | IC50 (UTMC2) [µM] | IC50 (CPM2) [µM] | IC50 (KMS11) [µM] | IC50 (My5) [µM] | IC50 (KMS12PE) [µM] | IC50 (My7) [µM] | IC50 (JJN3) [µM] | IC50 (KMS18) [µM] | IC50 (U266) [µM] | IC50 (SKMM2) [µM] | IC50 (RPMI-8226) [µM] | IC50 (IGF1 receptor) [µM]
1 | Cc1ccc(OCC(=O)CNc2cc[nH]c(=O)c2C2Nc3cc4c(cc3N2)C(=O)N(C2CCN(CCS(C)(=O)=O)CC2)C4)c(C)c1 (stereo not drawn) | ≥ 20 | ≥ 20 | 0.5 to 1 | 0.5 to 1 | 1 to 5 | < 0.5 | 1 to 5 | 1 to 5 | 5 to 20 | 1 to 5 | 1 to 5 | 1 to 5 | 5 to 20 | 1 to 5 | 1 to 5 | 5 to 20 | 
2 | CC(=O)CCN1CCC(N2Cc3cc4nc(-c5c(NCC(=O)COc6ccc(C)cc6C)cc[nH]c5=O)[nH]c4cc3C2=O)CC1 | ≥ 20 | ≥ 20 | 1 to 5 | 1 to 5 | 1 to 5 | < 0.5 | 1 to 5 | 5 to 20 | 5 to 20 | 5 to 20 | 5 to 20 | 5 to 20 | 5 to 20 | 1 to 5 | 5 to 20 | 5 to 20 | 
3 | CN1CCC(N2C(=O)c3cc4nc(-c5c(NCC(O)c6ccncc6)cc[nH]c5=O)[nH]c4cc3C2=O)CC1 (stereo not drawn) [compound 7] |  |  |  |  |  |  |  |  |  |  |  |  |  |  |  |  | > 15
